Where two headings read alike, the source gives them in different places.
What was measured:
[1] = Cytotoxicity evaluation (Cell Titer 96 AQueous One Solution Cell Proliferation Assay); type: cell-based; conditions: human, GS4.1 cells, cellular viability, read-out: HCV Replicon CC50
Description: (§1) Huh-7 cells containing HCV Con1 subgenomic replicon (GS4.1 cells), (C. Seeger; Fox Chase University, Philadelphia, Pa., USA), are grown in Dulbecco's Modified Eagle Medium (DMEM) supplemented with 10% fetal bovine serum (FBS), 2 mM L-glutamine, 110 mg/L sodium pyruvate, 1× non-essential amino acids, 100 U/mL penicillin-streptomycin and 0.5 mg/mL G418 (Invitrogen). For dose-response testing, the cells are seeded in 96-well plates at 7.5×10^3 cells/well in a volume of 50 μL and incubated at 37° C./5% CO2. Three hours after plating, 50 μL of ten 2-fold serial dilutions of compounds (highest concentration, 75 μM) are added and cell cultures were incubated at 37° C./5% CO2 in the presence of 0.5% DMSO. Alternatively, compounds are tested at a single concentration of 15 μM. In all cases, Huh-7 cells lacking the HCV replicon served as negative control. The cells are incubated in the presence of compounds for 72 hours after which they were monitored for expression of the NS4A protein by enzyme-linked immunosorbent assay (ELISA). For this, the plates were then fixed for 1 min with 1:1 acetone:methanol, washed twice with phosphate-buffered saline (PBS), 0.1% Tween 20, blocked for 1 hour at room temperature with TNE buffer containing 10% FBS and then incubated for 2 h at 37° C. with the anti-NS4A mouse monoclonal antibody A-236 (ViroGen) diluted in the same buffer. After washing three times with PBS, 0.1% Tween 20, the cells are incubated 1 hour at 37° C. with anti-mouse immunoglobulin G-peroxidase conjugate in TNE, 10% FBS. After washing as described above, the reaction is developed with O-phenylenediamine (Zymed). The reaction is stopped after 30 minutes with […] and the absorbance is read at 492 nm using a Sunrise Tecan spectrophotometer. EC50 values are determined from the % inhibition versus concentration data using a sigmoidal non-linear regression analysis based on four parameters with Tecan Magellan software. When screening at a single concentration, the results are expressed as % inhibition at 15 μM. For cytotoxicity evaluation, GS4.1 cells are treated with compounds as described above and cellular viability was monitored using a Cell Titer 96 AQueous One Solution Cell Proliferation Assay (Promega). CC50 values are determined from the % cytotoxicity versus concentration data with Tecan Magellan software as described above.

[2] = tested on: HCV Con1 subgenomic replicon; assay: HCV replicon assay (NS4A ELISA); type: cell-based; conditions: Hepatitis C virus
Description: as §1
Compounds presented in the table below were assayed according to the replicon assay described above.

[3] = ELISA 2 assay, Huh-7 cells containing HCV Con1 subgenomic replicon (GS4.1 cells), 72 hours, NS4A expression, read-out: HCV Replicon EC50
[4] = Huh-7, 72 h, read-out: HCV Replicon EC50 (μM)

Row | SMILES | CC50 at 72 h [1] [µM] | EC50 [2, 3] [µM] | EC50 [2, 4] [µM]
1 | C[C@@]1(O)[C@H](O)[C@@H](CO)O[C@H]1n1cnc2c(=O)[nH]c(N)nc21 [2′-C-methylguanosine, reference compound] | > 75 | 1 to 10 | 
2 | COC(=O)C(CC(C)C)NP(=O)(NC(CC(C)C)C(=O)OC)OC[C@H]1O[C@@H](n2cnc3c(OC)nc(N)nc32)C(C)(O)C1O (stereo partly drawn) [Compound 3] | > 75 | < 1 | 
3 | COC(=O)C(CC(C)C)NP(=O)(NC(CC(C)C)C(=O)OC)OC[C@H]1O[C@@H](n2cnc3c(OC)nc(N)nc32)[C@@]2(C)OC(=O)OC12 (stereo partly drawn) [Compound 4] | > 75 | < 1 | 
4 | CCOC(=O)C(CC(C)C)NP(=O)(NC(CC(C)C)C(=O)OCC)OC[C@H]1O[C@@H](n2cnc3c(NC4CC4)nc(N)nc32)C(C)(O)C1O (stereo partly drawn) [Compound 6] | > 75 | < 1 | 
5 | COC(=O)C(CC(C)C)NP(=O)(NC(CC(C)C)C(=O)OC)OC[C@H]1O[C@@H](n2cnc3c(NC4CC4)nc(N)nc32)C(C)(O)C1O (stereo partly drawn) [Compound 8] | > 75 | < 1 | 
6 | COC(=O)C(CC(C)C)NP(=O)(NC(CC(C)C)C(=O)OC)OC[C@H]1O[C@@H](n2cnc3c(=O)[nH]c(N)nc32)C(C)(O)C1O (stereo partly drawn) [Compound 9] | > 75 |  | 1 to 10
7 | C#CC1(F)C(O)[C@@H](COP(=O)(NCC(=O)OCC)NCC(=O)OCC)O[C@H]1n1cnc2c(=O)[nH]c(N)nc21 (stereo partly drawn) [Compound 48] | > 75 |  | > 10
8 | CCOC(=O)CNP(=O)(NCC(=O)OCC)OC[C@H]1O[C@@H](n2cnc3c(=O)[nH]c(N)nc32)C(C)(O)C1O (stereo partly drawn) [Compound 54] | > 75 |  | 1 to 10
9 | C#C[C@@]1(F)[C@H](O)[C@@H](CO)O[C@H]1n1cnc2c(=O)[nH]c(N)nc21 [reference compound] | > 75 | > 10 | 

— patent US8680071B2 (Idenix Pharmaceuticals, Inc., priority 2010, dated 2014)
